In brackets after ≈: the same amount, converted by molar mass.
Columns and labels:
Format in all cases: physicochemical
[1] = Dissolution in phosphate buffered saline (PBS) solution (Example 3); conditions: 35 ml PBS solution, Drug 2
Protocol: For a comparative dissolution study, Control E, consisting of 35 mg of crystalline Drug 2 was prepared. The dissolution of drug was studied by placing two of the trilayer tablets and Control E each in 35 ml of a phosphate buffered saline (PBS) solution composed of 6 mm KH2PO4, 5 mM NaOH, 60 mM KCl and 30 mM NaCl. The data for the trilayer tablet is the average of the values for the two tablets tested.

[2] = Water solubility of the drug
[3] = Dissolution in phosphate-buffered solution pH 7.2 simulating intestinal environment (Example 7); conditions: 50 ml phosphate-buffered solution pH 7.2, Drug 2
Protocol: For a comparative dissolution study, Control G, consisting of 100 mg of crystalline Drug 2 was prepared. The dissolution of drug was studied by placing one each of the bi-layer tablet and Control G preparation containing an equal amount of Drug 2 in 50 ml of the phosphate-buffered solution of Example 3 (pH 7.2, osmotic pressure 5.3 atm) to simulate an intestinal environment of use.

[4] = Dissolution in MFD solution (Example 8, sertraline); conditions: 40 ml MFD solution
Protocol: For a comparative dissolution study, Control H, consisting of 111.4 mg of the crystalline drug, was used. The dissolution of drug was studied by placing the bilayer tablet and Control H each in 40 ml of MFD solution.

[5] = Dissolution in MFD solution (Example 6); conditions: 50 ml MFD solution, Drug 1
Source text: 1. The data for the tri-layer tablet is the average of the values for the two tablets tested.

## O=C(N[C@@H](Cc1ccccc1)[C@@H](O)C(=O)N1C[C@@H](O)[C@@H](O)C1)c1cc2cc(Cl)ccc2[nH]1 [Control E]
[1]
  MDC (maximum drug concentration): 171 µg/mL
[1]; time 0.3 hrs
  [Drug] drug concentration: 99 µg/mL
[1]; time 1.5 hrs
  [Drug] drug concentration: 148 µg/mL
[1]; time 2.0 hrs
  [Drug] drug concentration: 165 µg/mL
[1]; time 3.0 hrs
  [Drug] drug concentration: 137 µg/mL
[1]; time 4.0 hrs
  [Drug] drug concentration: 142 µg/mL
[1]; time 12.0 hrs
  [Drug] drug concentration: 157 µg/mL
[1]; time 20.0 hrs
  [Drug] drug concentration: 171 µg/mL

## CON(C)C(=O)C(O)[C@H](Cc1ccccc1)NC(=O)c1cc2cc(Cl)ccc2[nH]1 (stereo in doubt) [Drug 1, [R-(R*,S*)]-5-chloro-N-[2-hydroxy-3-[methoxymethylamino)-3-1-(phenylmethyl)propyl]propyl]-1H-indole-2-carboxamide]
[2]
  water solubility: 1 µg/mL (≈ 2.4 µM)

## O=C(N[C@@H](Cc1ccccc1)[C@@H](O)C(=O)N1C[C@@H](O)[C@@H](O)C1)c1cc2cc(Cl)ccc2[nH]1 [Control G]
[3]
  MDC (maximum drug concentration): 77 µg/mL
[3]; time 0 hr
  [Drug] drug concentration: 0 µg/mL
[3]; time 1 hr
  [Drug] drug concentration: 59 µg/mL
[3]; time 2 hr
  [Drug] drug concentration: 72 µg/mL
[3]; time 4 hr
  [Drug] drug concentration: 72 µg/mL
[3]; time 8 hr
  [Drug] drug concentration: 77 µg/mL
[3]; time 12 hr
  [Drug] drug concentration: 71 µg/mL
[3]; time 18 hr
  [Drug] drug concentration: 71 µg/mL
[3]; time 24 hr
  [Drug] drug concentration: 75 µg/mL

## CN[C@H]1CC[C@@H](c2ccc(Cl)c(Cl)c2)c2ccccc21 [Control H, sertraline]
[4]
  MDC (maximum drug concentration): 401 µg/mL
[4]; time 0 hr
  AUC: 0 µg·min/mL
  [Drug] drug concentration: 0 µg/mL
[4]; time 0.2 hr
  [Drug] drug concentration: 278 µg/mL
[4]; time 0.3 hr
  [Drug] drug concentration: 401 µg/mL
[4]; time 0.7 hr
  [Drug] drug concentration: 341 µg/mL
[4]; time 1.5 hr
  [Drug] drug concentration: 217 µg/mL
[4]; time 2 hr
  [Drug] drug concentration: 188 µg/mL
[4]; time 3 hr
  [Drug] drug concentration: 168 µg/mL
[4]; time 4 hr
  [Drug] drug concentration: 152 µg/mL
[4]; time 6 hr
  [Drug] drug concentration: 160 µg/mL
[4]; time 10 hr
  [Drug] drug concentration: 137 µg/mL
[4]; time 14 hr
  [Drug] drug concentration: 135 µg/mL
[4]; time 24 hr
  [Drug] drug concentration: 191 µg/mL

## CON(C)C(=O)C(O)[C@H](Cc1ccccc1)NC(=O)c1cc2cc(Cl)ccc2[nH]1 (stereo in doubt) [Control F, [R-(R*,S*)]-5-chloro-N-[2-hydroxy-3-[methoxymethylamino)-3-1-(phenylmethyl)propyl]propyl]-1H-indole-2-carboxamide]
[5]
  MDC (maximum drug concentration): 16 µg/mL
[5]; time 0 hr
  [Drug] drug concentration: 0 µg/mL
[5]; time 2 hr
  [Drug] drug concentration: 13 µg/mL
[5]; time 4 hr
  [Drug] drug concentration: 16 µg/mL
[5]; time 8 hr
  [Drug] drug concentration: 13 µg/mL
[5]; time 12 hr
  [Drug] drug concentration: 15 µg/mL
[5]; time 20 hr
  [Drug] drug concentration: 12 µg/mL
[5]; time 24 hr
  [Drug] drug concentration: 11 µg/mL

Reference: US7550158B2, “Controlled release by extrusion of solid amorphous dispersions of drugs” (Bend Research, Inc., priority 1999, dated 2009)
